Assay results: patent US6387954B1, “Alkenyl sulphonamide derivatives” (Eli Lilly and Company, priority 1998, dated 2002)

Target: T1, human GluR4B receptor (Homo sapiens, UniProt P48058)
T1 construct: expressed in transfected cells; host or cells: HEK293
Experiment: potentiation of agonist-induced excitability of GluR4B expressed in HEK 293 cells
Format: cell-based
Conditions: human GluR4B receptor expressed in HEK 293 cells
Text: The ability of compounds of formula I to potentiate glutamate receptor-mediated response may be determined using fluorescent calcium indicator dyes (Molecular Probes, Eugene, Oregon, Fluo-3) and by measuring glutamate-evoked […] of calcium into GluR4 transfected HEK293 cells, as described in more detail below.
In one test, 96 well plates containing confluent monolayers of HEK cells stably expressing human GluR4B (obtained as described in European Patent Application Publication Number EP-A1-583917) are prepared. The tissue culture medium in the wells is then discarded, and the wells are each washed once with 200 μl of buffer (glucose, 10 mM, sodium chloride, 138 mM, magnesium chloride, 1 mM, potassium chloride, 5 mM, calcium chloride, 5 mM, N-[2-hydroxyethyl]-piperazine-N-[2-ethanesulfonic acid], 10 mM, to pH 7.1 to 7.3). […]
Each test is then performed as follows. […] A second fluorescent reading is taken after 5 minutes incubation. 15 μl of 400 μM glutamate solution is then added to each well (final glutamate concentration 100 μM), and a third reading is taken. The activities of test compounds and cyclothiazide solutions are determined by subtracting the second from the third reading (fluorescence due to addition of glutamate in the presence or absence of test compound or cyclothiazide) and are expressed relative to enhance fluorescence produced by 100 μM cyclothiazide.

T1 sequence (P48058 21-902): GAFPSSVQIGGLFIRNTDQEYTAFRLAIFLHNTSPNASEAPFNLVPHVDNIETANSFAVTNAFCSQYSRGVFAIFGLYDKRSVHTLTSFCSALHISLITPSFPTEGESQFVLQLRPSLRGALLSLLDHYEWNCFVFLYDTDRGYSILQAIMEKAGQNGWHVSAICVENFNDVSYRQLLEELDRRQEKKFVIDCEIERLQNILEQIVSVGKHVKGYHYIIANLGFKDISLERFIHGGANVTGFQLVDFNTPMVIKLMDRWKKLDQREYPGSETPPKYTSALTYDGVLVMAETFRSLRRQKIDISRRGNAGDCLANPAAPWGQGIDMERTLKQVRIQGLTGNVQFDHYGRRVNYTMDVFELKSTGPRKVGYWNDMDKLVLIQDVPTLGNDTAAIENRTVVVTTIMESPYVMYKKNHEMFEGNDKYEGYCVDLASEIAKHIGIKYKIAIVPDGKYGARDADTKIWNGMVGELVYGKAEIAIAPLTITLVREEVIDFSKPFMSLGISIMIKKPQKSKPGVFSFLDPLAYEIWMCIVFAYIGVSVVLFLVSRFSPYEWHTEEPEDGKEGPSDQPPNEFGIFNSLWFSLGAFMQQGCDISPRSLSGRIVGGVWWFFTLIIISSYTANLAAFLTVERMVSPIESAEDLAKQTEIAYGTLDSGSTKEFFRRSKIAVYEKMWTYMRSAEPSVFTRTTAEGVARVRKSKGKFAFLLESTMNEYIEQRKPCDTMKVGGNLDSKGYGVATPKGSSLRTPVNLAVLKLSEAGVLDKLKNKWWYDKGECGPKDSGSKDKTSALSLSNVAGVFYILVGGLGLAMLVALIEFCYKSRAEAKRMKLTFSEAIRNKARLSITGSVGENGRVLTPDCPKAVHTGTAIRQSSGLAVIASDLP

**Q.** How did the “potentiation of agonist-induced excitability” value turn out when `NS(=O)(=O)c1cc2c(cc1Cl)NC(C1CC3C=CC1C3)NS2(=O)=O` (stereo not shown) [cyclothiazide] was run?
**A.** potentiate agonist-induced excitability
